# Laboratory results taken from patent publication US12622910B2, “Inhibitors of Bruton's tyrosine kinase and methods of their use” (Janssen Pharmaceutica NV, priority 2021, dated 2026).
# Columns and labels:
# [1] = target: 5-HT1A (h) (Homo sapiens, UniProt P08908); experiment: Receptor panel, Study 1; format: binding
# Method: (§1) RESULTS AND DISCUSSION—Selectivity—The compound of Formula (III) was evaluated in three selectivity panels to assess the potential for off-target pharmacology (Table 8). […] The kinase off-target profile of The compound of Formula (III) was assessed in a full human wild-type panel using radiometric kinase activity assays (KinaseProfiler™ and IC50Profiler™; Eurofins Scientific) (Table 9; FIG. 23). The compound of Formula (III) inhibited 4/278 kinases >50% at 1 micromolar, identifying BTK and the three other kinases having analogous Cys residues with the potential for covalent inhibition (BMX, TEC, BLK). […]. The cellular kinase selectivity of The compound of Formula (III) was established in native Ramos B cell kinome assays (KiNativ™; ActivX) confirmed BTK as the primary target with inhibition of BLK and TEC inhibition detected (Table 10).
# [2] = target: 5-HT6 (h) (Homo sapiens, UniProt P50406); experiment: Receptor panel, Study 1; format: binding
# Sequence of 5-HT6 (h) (P50406 whole entry): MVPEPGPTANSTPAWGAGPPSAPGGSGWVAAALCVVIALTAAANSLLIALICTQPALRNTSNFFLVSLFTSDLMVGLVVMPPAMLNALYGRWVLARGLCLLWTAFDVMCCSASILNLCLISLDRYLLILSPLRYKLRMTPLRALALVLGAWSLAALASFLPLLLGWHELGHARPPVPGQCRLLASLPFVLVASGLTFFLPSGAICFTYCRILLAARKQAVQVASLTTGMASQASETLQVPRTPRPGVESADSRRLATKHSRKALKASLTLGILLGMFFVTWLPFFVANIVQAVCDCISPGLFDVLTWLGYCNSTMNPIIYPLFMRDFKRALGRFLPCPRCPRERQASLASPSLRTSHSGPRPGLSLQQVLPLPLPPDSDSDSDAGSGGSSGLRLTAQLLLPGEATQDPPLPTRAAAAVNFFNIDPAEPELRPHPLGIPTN
# Method: as §1
# [3] = target: A2A (h) (Homo sapiens, UniProt P29274); experiment: Receptor panel, Study 1; format: binding
# Sequence of A2A (h) (P29274 whole entry): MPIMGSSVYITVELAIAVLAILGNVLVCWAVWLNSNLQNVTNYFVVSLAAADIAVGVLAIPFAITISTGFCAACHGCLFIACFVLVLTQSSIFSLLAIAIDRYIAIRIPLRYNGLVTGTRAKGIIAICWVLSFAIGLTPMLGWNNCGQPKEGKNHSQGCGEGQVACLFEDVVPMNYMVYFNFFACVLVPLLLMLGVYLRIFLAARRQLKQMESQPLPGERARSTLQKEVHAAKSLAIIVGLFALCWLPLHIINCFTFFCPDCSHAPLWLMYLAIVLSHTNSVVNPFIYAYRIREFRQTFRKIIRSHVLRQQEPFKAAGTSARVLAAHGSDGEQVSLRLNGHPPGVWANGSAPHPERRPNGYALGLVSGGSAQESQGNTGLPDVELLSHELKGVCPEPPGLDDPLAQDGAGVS
# Method: as §1
# [4] = target: CXCR2 (h) (IL-8B) (Homo sapiens, UniProt P25025); experiment: Receptor panel, Study 1; format: binding
# Sequence of CXCR2 (h) (IL-8B) (P25025 whole entry): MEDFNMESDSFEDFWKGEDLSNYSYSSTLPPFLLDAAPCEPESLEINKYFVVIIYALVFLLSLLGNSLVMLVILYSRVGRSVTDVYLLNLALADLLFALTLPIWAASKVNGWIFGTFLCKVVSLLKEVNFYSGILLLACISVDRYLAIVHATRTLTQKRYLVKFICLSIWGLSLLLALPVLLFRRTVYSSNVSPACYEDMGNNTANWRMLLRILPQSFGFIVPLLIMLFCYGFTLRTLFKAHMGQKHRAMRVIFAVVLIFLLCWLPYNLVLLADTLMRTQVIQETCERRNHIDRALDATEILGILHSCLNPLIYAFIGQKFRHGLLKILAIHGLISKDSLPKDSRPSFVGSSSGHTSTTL
# Method: as §1
# [5] = target: D1 (h) (Homo sapiens, UniProt P21728); experiment: Receptor panel, Study 1; format: binding
# Sequence of D1 (h) (P21728 whole entry): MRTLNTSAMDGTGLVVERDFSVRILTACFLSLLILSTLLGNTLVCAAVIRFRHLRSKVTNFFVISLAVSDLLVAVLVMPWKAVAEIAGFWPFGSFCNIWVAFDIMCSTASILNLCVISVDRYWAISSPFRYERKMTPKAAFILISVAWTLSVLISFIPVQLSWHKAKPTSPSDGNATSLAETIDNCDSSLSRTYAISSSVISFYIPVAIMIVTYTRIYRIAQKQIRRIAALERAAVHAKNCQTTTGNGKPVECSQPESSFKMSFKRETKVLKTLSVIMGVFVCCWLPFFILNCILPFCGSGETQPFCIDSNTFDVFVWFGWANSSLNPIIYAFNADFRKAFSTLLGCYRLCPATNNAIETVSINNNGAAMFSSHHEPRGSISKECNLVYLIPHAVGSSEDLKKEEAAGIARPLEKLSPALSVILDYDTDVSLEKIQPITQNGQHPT
# Method: as §1
# [6] = target: H1 (h) (Homo sapiens, UniProt P35367); experiment: Receptor panel, Study 1; format: binding
# Sequence of H1 (h) (P35367 whole entry): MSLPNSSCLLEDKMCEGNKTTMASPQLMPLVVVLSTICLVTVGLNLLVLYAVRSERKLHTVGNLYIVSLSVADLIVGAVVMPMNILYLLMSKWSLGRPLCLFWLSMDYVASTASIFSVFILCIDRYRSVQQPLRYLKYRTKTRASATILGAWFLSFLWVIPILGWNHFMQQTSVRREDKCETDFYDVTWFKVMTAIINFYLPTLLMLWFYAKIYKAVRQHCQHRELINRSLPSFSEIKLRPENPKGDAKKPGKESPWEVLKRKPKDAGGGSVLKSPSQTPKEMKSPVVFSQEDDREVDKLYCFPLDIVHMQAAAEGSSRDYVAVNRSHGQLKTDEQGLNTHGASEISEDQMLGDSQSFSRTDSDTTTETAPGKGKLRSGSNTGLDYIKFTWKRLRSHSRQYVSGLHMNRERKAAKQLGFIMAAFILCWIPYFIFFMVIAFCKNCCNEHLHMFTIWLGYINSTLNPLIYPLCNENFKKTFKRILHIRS
# Method: as §1
# [7] = target: MT1 (h) (Homo sapiens, UniProt P48039); experiment: Receptor panel, Study 1; format: binding
# Sequence of MT1 (h) (P48039 whole entry): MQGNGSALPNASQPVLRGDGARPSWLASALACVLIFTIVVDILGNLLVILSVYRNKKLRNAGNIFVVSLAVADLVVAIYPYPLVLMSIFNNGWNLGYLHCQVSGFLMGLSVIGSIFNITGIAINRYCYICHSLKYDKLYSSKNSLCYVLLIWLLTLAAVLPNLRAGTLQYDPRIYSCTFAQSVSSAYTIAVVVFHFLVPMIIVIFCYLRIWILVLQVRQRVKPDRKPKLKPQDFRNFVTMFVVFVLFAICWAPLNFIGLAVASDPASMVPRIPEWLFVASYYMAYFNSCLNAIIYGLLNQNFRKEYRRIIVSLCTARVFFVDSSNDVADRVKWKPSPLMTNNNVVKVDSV
# Method: as §1
# [8] = target: NT1 (h) (NTS1) (Homo sapiens, UniProt P30989); experiment: Receptor panel, Study 1; format: binding
# Sequence of NT1 (h) (NTS1) (P30989 whole entry): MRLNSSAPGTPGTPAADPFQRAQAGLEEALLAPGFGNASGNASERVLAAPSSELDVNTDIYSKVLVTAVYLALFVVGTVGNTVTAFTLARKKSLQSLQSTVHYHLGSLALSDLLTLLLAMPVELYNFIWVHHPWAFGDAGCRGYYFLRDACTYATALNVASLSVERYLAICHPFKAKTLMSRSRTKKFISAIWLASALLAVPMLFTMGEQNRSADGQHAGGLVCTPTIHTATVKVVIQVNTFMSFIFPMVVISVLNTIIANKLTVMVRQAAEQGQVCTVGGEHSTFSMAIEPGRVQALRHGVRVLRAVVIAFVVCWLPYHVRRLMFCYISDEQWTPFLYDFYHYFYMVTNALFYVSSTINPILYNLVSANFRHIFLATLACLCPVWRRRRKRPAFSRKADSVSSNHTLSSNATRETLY
# Method: as §1
# [9] = target: delta 2(h) (DOP) (Homo sapiens, UniProt P41143); experiment: Receptor panel, Study 1; format: binding
# Sequence of delta 2(h) (DOP) (P41143 whole entry): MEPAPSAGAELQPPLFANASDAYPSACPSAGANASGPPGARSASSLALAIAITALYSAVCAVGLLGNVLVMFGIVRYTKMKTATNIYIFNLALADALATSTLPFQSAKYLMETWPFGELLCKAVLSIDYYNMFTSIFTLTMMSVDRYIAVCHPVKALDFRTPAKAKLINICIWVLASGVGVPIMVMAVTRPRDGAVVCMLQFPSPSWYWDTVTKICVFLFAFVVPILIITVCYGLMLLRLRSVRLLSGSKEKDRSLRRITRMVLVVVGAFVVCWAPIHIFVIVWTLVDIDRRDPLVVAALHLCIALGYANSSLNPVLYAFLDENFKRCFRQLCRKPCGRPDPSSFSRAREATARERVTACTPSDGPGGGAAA
# Method: as §1
# [10] = test system: kappa (KOP); experiment: Receptor panel, Study 1; format: binding
# Method: as §1
# [11] = Plasma protein binding, equilibrium dialysis; format: in vitro ADME, Sprague Dawley rat
# Method: Additional Data on Preclinical PK Profile—Protein binding of the compound of Formula (III) was studied using an equilibrium dialysis method in plasma from human, cynomolgus monkey, beagle dog, Sprague Dawley rat, CD-1 mouse, and guinea pig at 0.25, 2.5, and 25 μM. […] In human and monkey, the plasma protein binding was concentration dependent. […] Free fraction of the compound of Formula (III) in liver microsomes from various species ranged from 75.1% to 87.9% at 0.25 mg/mL and from 58.9% to 86.5% at 1.0 mg/mL (Table 17). […] In hepatocytes, the compound of Formula (III) turnover followed a similar trend, with T1/2 ranging from 75.3 minutes in monkey to 278.1 minutes in human.
# [12] = target: T1, CYP3A4 (Homo sapiens, UniProt P08684); experiment: CYP inhibition in human liver microsomes; format: in vitro ADME
# T1 construct: with specific CYP probe substrates in human liver microsomes; from tissue; host or cells: human liver microsomes
# T1 sequence (P08684 whole entry): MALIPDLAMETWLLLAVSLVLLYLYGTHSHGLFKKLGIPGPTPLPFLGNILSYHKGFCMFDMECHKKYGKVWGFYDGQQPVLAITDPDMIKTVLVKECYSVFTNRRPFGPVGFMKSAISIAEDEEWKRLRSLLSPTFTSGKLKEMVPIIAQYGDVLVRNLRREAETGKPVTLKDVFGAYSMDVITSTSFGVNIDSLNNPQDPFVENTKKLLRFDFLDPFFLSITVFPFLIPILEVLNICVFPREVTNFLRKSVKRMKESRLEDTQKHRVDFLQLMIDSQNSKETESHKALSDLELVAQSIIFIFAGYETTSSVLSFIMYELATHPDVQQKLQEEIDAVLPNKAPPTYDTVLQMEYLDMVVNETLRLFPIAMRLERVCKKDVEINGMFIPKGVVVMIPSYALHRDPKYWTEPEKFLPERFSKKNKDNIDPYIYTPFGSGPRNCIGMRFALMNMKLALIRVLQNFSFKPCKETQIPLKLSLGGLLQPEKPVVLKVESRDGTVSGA
# Method: The potential of the compound of Formula (III) to inhibit human CYP450s in vitro was investigated up to test concentrations of 50 μM by incubating the compound of Formula (III) with specific CYP probe substrates in human liver microsomes and measuring probe metabolite formation.
# [13] = target: T1, CYP3A4; experiment: Chemical inhibition of turnover in pooled human liver microsomes (ketoconazole); format: in vitro ADME; conditions: 1 μM, HLM 0.5 mg/mL
# [14] = Covalent binding to hepatic proteins in human hepatocytes (14C label); format: in vitro ADME
# Method: The extent of the compound of Formula (III) covalent binding to hepatic proteins was determined in human hepatocytes at 1 and 10 μM (Table 19). A ^14C label was introduced at the acrylamide carbonyl carbon of the compound of Formula (III). […] Troglitazone and pioglitazone served as positive and negative controls, respectively.
# [15] = test system: human IL-10; experiment: Circulating human IL-10 in serum of NSG mice with OCI-LY10 tumors; format: in vivo
# Description: FIG. 18 depicts circulating human IL-10 cytokine serum levels of mice treated with the compound of Formula (III). IL-10 cytokine levels are graphed as % normalized to vehicle control IL-10 levels ±SEM. Female NSG mice were implanted SC with OCI-LY10 cells on the right flank on Day 0. After tumors were established 39 days post implantation, mice were randomized into experimental groups and dosed orally with a single dose (n=5/dose level/time point). Serum samples were collected 2, 4, 8, 12, 16 and 24 hours after compound administration.
# In Vivo Efficacy in ABC-DLBCL Xenograft and PDX Mouse Models of Lymphoma-To evaluate the effect of the compound of Formula (III) on NFκB signaling in vivo, we analyzed circulating human IL-10 levels in serum of NSG mice implanted with OCI-LY10 DLBCL tumors treated with 0, 1, 3, 10, 30 and 100 mg/kg compound of Formula (III) at 2, 4, 8, 12, 16 and 24 hours after single dose administration. Human IL-10 levels dropped to around 50% of vehicle control 2 hours after dosing, lowering even further after 4 hours to below 20%, 10% and 5% of vehicle control IL-10 levels in 10 mg/kg, 30 mg/kg and 100 mg/kg compound of Formula (III) treatment groups, respectively, and remaining low up to 12 hours. Some rebound to 23% of vehicle control levels for 30 mg/kg and 100 mg/kg and to 39% for the 10 mg/kg dosing group are observed 16 hours after compound administration, while IL-10 levels normalize after 24 hours (FIG. 18).
# [16] = test system: B-cell activation; experiment: Inhibition of B-cell activation after dosing (FIG. 22); format: in vivo; conditions: 2, 3, and 10 mg/kg, at 8 hours
# Description: Data represent mean±SEM (n=3/group).
# [17] = test system: receptors, enzymes, and ion channels; experiment: Panel of diverse proteins (54 test targets); format: binding; conditions: 10 μM
# Method: as §1
# Sequence of 5-HT1A (h) (P08908 whole entry): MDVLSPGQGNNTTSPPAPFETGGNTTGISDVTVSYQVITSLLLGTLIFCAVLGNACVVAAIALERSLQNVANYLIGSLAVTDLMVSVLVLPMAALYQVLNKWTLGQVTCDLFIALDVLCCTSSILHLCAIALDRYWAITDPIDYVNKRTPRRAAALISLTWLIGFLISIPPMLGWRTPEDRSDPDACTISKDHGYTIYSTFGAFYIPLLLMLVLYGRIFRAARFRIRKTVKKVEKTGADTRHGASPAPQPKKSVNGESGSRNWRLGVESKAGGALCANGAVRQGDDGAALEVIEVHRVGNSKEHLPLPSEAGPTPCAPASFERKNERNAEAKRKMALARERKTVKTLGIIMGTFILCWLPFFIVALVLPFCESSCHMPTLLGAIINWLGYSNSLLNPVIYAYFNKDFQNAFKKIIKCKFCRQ
smiles,measurement,setting,value
"C=CC(=O)N[C@H]1CCC[C@H]1NC(=O)c1sc2nccc3c2c1NC(=O)N3c1cnc(CC(C)C)cc1C (atropisomer, axis not shown) [compound of Formula (III), N-((1R,2S)-2-Acrylamidocyclopentyl)-5-(S)-(6-isobutyl-4-methylpyridin-3-yl)-4-oxo-4,5-dihydro-3H-1-thia-3,5,8-triazaacenaphthylene-2-carboxamide]",inhibition at 10 µM,[1],< 10%
same,inhibition at 10 µM,[2],< 10%
same,inhibition at 10 µM,[3],< 10%
same,inhibition at 10 µM,[4],< 10%
same,inhibition at 10 µM,[5],< 10%
same,inhibition at 10 µM,[6],< 10%
same,inhibition at 10 µM,[7],13.4%
same,inhibition at 10 µM,[8],< 10%
same,inhibition at 10 µM,[9],< 10%
same,% Inhibition at 10 μM,[10],— (no inhibition observed)
same,% Free in plasma,[11]; 0.25 μM,3.73%
same,fraction unbound at 2.5 μM,"[11]; Sprague Dawley, rat, plasma, 2.5 μM, read-out: % Free in plasma",0.0365
same,fraction unbound at 25 μM,"[11]; Sprague Dawley, rat, plasma, 25 μM, read-out: % Free in plasma",0.0405
same,IC50,[12]; probe Midazolam,25 µM
same,IC50,[12]; probe Nifedipine,> 50 µM
same,IC50,[12]; probe Testosterone,40 µM
same,inhibition of turnover by ketoconazole,[13],> 97%
same,Compound Turnover,[14]; 1 μM study,49.1%
same,Fraction Covalently Bound (fcvb),[14]; 1 μM study,0.07 ± 0.01
same,Net Covalent Binding,"[14]; 1 μM study, 0.5×10^6 cells/mL, 4.5 h",46.8 ± 5.1 pmol eq/mg protein
same,Compound Turnover,[14]; 10 μM study,70.1%
same,Fraction Covalently Bound (fcvb),[14]; 10 μM study,0.00564 ± 0.0001
same,Net Covalent Binding,"[14]; 10 μM study, 0.75×10^6 cells/mL, 3 h",50.0 ± 0.8 pmol eq/mg protein
same,"human IL-10, % of vehicle control","[15]; 10 mg/kg, 4 hours",below 20%
same,"human IL-10, % of vehicle control","[15]; 10 mg/kg, 16 hours",39%
same,"human IL-10, % of vehicle control","[15]; 30 mg/kg, 4 hours",< 10%
same,"human IL-10, % of vehicle control","[15]; 30 mg/kg, 16 hours",23%
same,"human IL-10, % of vehicle control","[15]; 100 mg/kg, 4 hours",< 5%
same,"human IL-10, % of vehicle control","[15]; 100 mg/kg, 16 hours",23%
same,"human IL-10, % of vehicle control",[15]; 2 hours after single oral dose,around 50%
same,inhibition ratio of B-cell activation,[16],≥ 78%
same,binding in off-target panel,[17],did not bind >50% at 10 μM for any of the 54 test targets
